In the supplement of paper PMC10307832:

What was measured:
Test in all cases: relative viability (nuclei count vs DMSO), 5 days (fraction); higher = more cells survive
[1] = tested on: NCI-H460
Procedure, shortened: (§1)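 Relative viability divides the nuclei count in treated wells by that in vehicle wells. Lung cancer cell lines were seeded in 1536-well plates, dosed by pin tool the next day, and fixed and stained after 5 days in one step with final 0.05% Triton X-100, 1% formaldehyde and 1 ug/ml Hoechst. Dosing was a single drug or a fixed anchor-drug dose plus five library-drug doses (not always all listed) in √10 steps, and values are medians of duplicate plates imaged at 4×.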

[2] = tested on: NCI-H2023
Procedure, shortened: as §1

[3] = tested on: COR-L23
Procedure, shortened: as §1

[4] = tested on: RERF-LC-KJ
Procedure, shortened: as §1

[5] = tested on: NCI-H1650
Procedure, shortened: as §1

[6] = tested on: NCI-H1993
Procedure, shortened: as §1

[7] = tested on: NCI-H2009
Procedure, shortened: as §1

[8] = tested on: 201T
Procedure, shortened: as §1

[9] = tested on: SW 1573
Procedure, shortened: as §1

[10] = tested on: A-427
Procedure, shortened: as §1

[11] = tested on: LCLC-103H
Procedure, shortened: as §1

[12] = tested on: ChaGo-K-1
Procedure, shortened: as §1

[13] = tested on: NCI-H650
Procedure, shortened: as §1

[14] = tested on: HCC-44
Procedure, shortened: as §1

[15] = tested on: LCLC-97TM1
Procedure, shortened: as §1

[16] = tested on: HCC-366
Procedure, shortened: as §1

[17] = tested on: LOU-NH91
Procedure, shortened: as §1

[18] = tested on: HCC-78
Procedure, shortened: as §1

[19] = tested on: NCI-H1734
Procedure, shortened: as §1

[20] = tested on: NCI-H2126
Procedure, shortened: as §1

[21] = tested on: NCI-H441
Procedure, shortened: as §1

[22] = tested on: HCC-15
Procedure, shortened: as §1

[23] = tested on: HARA
Procedure, shortened: as §1

Molecule O=C(O)CCCCC(CCSCc1ccccc1)SCc1ccccc1 (centres undefined) [CPI-613] + COc1cccc2cc(-c3nc([C@H]4CC[C@H](C(=O)O)CC4)n4ncnc(N)c34)[nH]c12 [OSI-027] (partner 0.5 µM) has a relative viability ([1]; first compound 5 µM) of 0.636, a relative viability ([1]; first compound 15.81 µM) of 0.422 and a relative viability ([1]; first compound 50 µM) of 0.535. The relative viability ([1]; first compound 158.11 µM) was 0.173, the relative viability ([1]; first compound 500 µM) was 0.0125 and the relative viability ([2]; first compound 5 µM) was 0.407. For the same molecule, the relative viability ([2]; first compound 15.81 µM) was 0.303, the relative viability ([2]; first compound 50 µM) was 0.29 and the relative viability ([2]; first compound 158.11 µM) was 0.0518. The relative viability ([2]; first compound 500 µM) was 0.0054, the relative viability ([3]; first compound 5 µM) was 0.738 and the relative viability ([3]; first compound 15.81 µM) was 0.584. The relative viability ([3]; first compound 50 µM) was 0.562, the relative viability ([3]; first compound 158.11 µM) was 0.169 and the relative viability ([3]; first compound 500 µM) was 0.0278. For the same molecule, the relative viability ([4]; first compound 5 µM) was 0.553, the relative viability ([4]; first compound 15.81 µM) was 0.491 and the relative viability ([4]; first compound 50 µM) was 0.513. For the same molecule, the relative viability ([4]; first compound 158.11 µM) was 0.114, the relative viability ([4]; first compound 500 µM) was 0.0544 and the relative viability ([5]; first compound 5 µM) was 0.592. It also gave a relative viability ([5]; first compound 15.81 µM) of 0.566, a relative viability ([5]; first compound 50 µM) of 0.58 and a relative viability ([5]; first compound 158.11 µM) of 0.14. The relative viability ([5]; first compound 500 µM) was 0.0159, the relative viability ([6]; first compound 5 µM) was 0.531 and the relative viability ([6]; first compound 15.81 µM) was 0.572. It also gave a relative viability ([6]; first compound 50 µM) of 0.567, a relative viability ([6]; first compound 158.11 µM) of 0.46 and a relative viability ([6]; first compound 500 µM) of 0.375. For the same molecule, the relative viability ([7]; first compound 5 µM) was 0.599, the relative viability ([7]; first compound 15.81 µM) was 0.58 and the relative viability ([7]; first compound 50 µM) was 0.46. The relative viability ([7]; first compound 158.11 µM) was 0.0782, the relative viability ([7]; first compound 500 µM) was 0.0289 and the relative viability ([8]; first compound 5 µM) was 0.754. The relative viability ([8]; first compound 15.81 µM) was 0.711, the relative viability ([8]; first compound 50 µM) was 0.606 and the relative viability ([8]; first compound 158.11 µM) was 0.678. The relative viability ([8]; first compound 500 µM) was 0.818, the relative viability ([9]; first compound 5 µM) was 0.592 and the relative viability ([9]; first compound 15.81 µM) was 0.444. It also gave a relative viability ([9]; first compound 50 µM) of 0.498, a relative viability ([9]; first compound 158.11 µM) of 0.0962 and a relative viability ([9]; first compound 500 µM) of 0.056. For the same molecule, the relative viability ([10]; first compound 5 µM) was 0.416, the relative viability ([10]; first compound 15.81 µM) was 0.423 and the relative viability ([10]; first compound 50 µM) was 0.387. The relative viability ([10]; first compound 158.11 µM) was 0.348, the relative viability ([10]; first compound 500 µM) was 0.154 and the relative viability ([11]; first compound 5 µM) was 0.424. The relative viability ([11]; first compound 15.81 µM) was 0.428, the relative viability ([11]; first compound 50 µM) was 0.345 and the relative viability ([11]; first compound 158.11 µM) was 0.377. For the same molecule, the relative viability ([11]; first compound 500 µM) was 0.317, the relative viability ([12]; first compound 5 µM) was 0.61 and the relative viability ([12]; first compound 15.81 µM) was 0.509. For the same molecule, the relative viability ([12]; first compound 50 µM) was 0.53, the relative viability ([12]; first compound 158.11 µM) was 0.377 and the relative viability ([12]; first compound 500 µM) was 0.0966. The relative viability ([13]; first compound 5 µM) was 0.445, the relative viability ([13]; first compound 15.81 µM) was 0.415 and the relative viability ([13]; first compound 50 µM) was 0.466. It also gave a relative viability ([13]; first compound 158.11 µM) of 0.346, a relative viability ([13]; first compound 500 µM) of 0.373 and a relative viability ([14]; first compound 5 µM) of 0.432. For the same molecule, the relative viability ([14]; first compound 15.81 µM) was 0.405, the relative viability ([14]; first compound 50 µM) was 0.501 and the relative viability ([14]; first compound 158.11 µM) was 0.489. It also gave a relative viability ([14]; first compound 500 µM) of 0.0788, a relative viability ([15]; first compound 5 µM) of 0.508 and a relative viability ([15]; first compound 15.81 µM) of 0.519. It also gave a relative viability ([15]; first compound 50 µM) of 0.67, a relative viability ([15]; first compound 158.11 µM) of 0.474 and a relative viability ([15]; first compound 500 µM) of 0.0503. It also gave a relative viability ([16]; first compound 5 µM) of 0.924, a relative viability ([16]; first compound 15.81 µM) of 0.787 and a relative viability ([16]; first compound 50 µM) of 1.08. The relative viability ([16]; first compound 158.11 µM) was 0.244, the relative viability ([16]; first compound 500 µM) was 0.0116 and the relative viability ([17]; first compound 5 µM) was 0.703. It also gave a relative viability ([17]; first compound 15.81 µM) of 0.65, a relative viability ([17]; first compound 50 µM) of 0.703 and a relative viability ([17]; first compound 158.11 µM) of 0.686. It also gave a relative viability ([17]; first compound 500 µM) of 0.672, a relative viability ([18]; first compound 5 µM) of 0.351 and a relative viability ([18]; first compound 15.81 µM) of 0.377. For the same molecule, the relative viability ([18]; first compound 50 µM) was 0.373, the relative viability ([18]; first compound 158.11 µM) was 0.351 and the relative viability ([18]; first compound 500 µM) was 0.4. It also gave a relative viability ([19]; first compound 5 µM) of 0.58, a relative viability ([19]; first compound 15.81 µM) of 0.55 and a relative viability ([19]; first compound 50 µM) of 0.571. It also gave a relative viability ([19]; first compound 158.11 µM) of 0.325, a relative viability ([19]; first compound 500 µM) of 0.1 and a relative viability ([20]; first compound 5 µM) of 0.66. It also gave a relative viability ([20]; first compound 15.81 µM) of 0.643, a relative viability ([20]; first compound 50 µM) of 0.7 and a relative viability ([20]; first compound 158.11 µM) of 0.448. It also gave a relative viability ([20]; first compound 500 µM) of 0.63, a relative viability ([21]; first compound 5 µM) of 0.615 and a relative viability ([21]; first compound 15.81 µM) of 0.596. For the same molecule, the relative viability ([21]; first compound 50 µM) was 0.586, the relative viability ([21]; first compound 158.11 µM) was 0.255 and the relative viability ([21]; first compound 500 µM) was 0.0397. For the same molecule, the relative viability ([22]; first compound 5 µM) was 0.552, the relative viability ([22]; first compound 15.81 µM) was 0.602 and the relative viability ([22]; first compound 50 µM) was 0.586. It also gave a relative viability ([22]; first compound 158.11 µM) of 0.364, a relative viability ([22]; first compound 500 µM) of 0.0388 and a relative viability ([23]; first compound 15.81 µM) of 0.482. It also gave a relative viability ([23]; first compound 50 µM) of 0.387, a relative viability ([23]; first compound 158.11 µM) of 0.188 and a relative viability ([23]; first compound 500 µM) of 0.0367.
